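A five-concentration, 48-hour dose response in 96-well plates underlies each endpoint, interpolated linearly between surrounding concentrations. Here, GI50 denotes the concentration required for 50% inhibition of growth.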 Active and inactive are the calls of the source. No stated cut-off is given here; in the data, active = GI50 up to about 1.1 µM and inactive = higher.
Columns and labels:
Experiment in all cases: NCI anticancer screen, dose series, 48 h
[1] = test system: OVCAR-3
[2] = test system: U-251
[3] = test system: MOLT-4
[4] = test system: UACC-62
[5] = test system: XF498
[6] = test system: NCI-H460
[7] = test system: LOX IMVI
[8] = test system: HCT-116
[9] = test system: SNB-78
[10] = test system: SNB-75
[11] = test system: SN12C
[12] = test system: A549
[13] = test system: OVCAR-4
[14] = test system: SR
[15] = test system: KM12
[16] = test system: RPMI-8226
[17] = test system: COLO 205
[18] = test system: UO-31
[19] = test system: HOP-62
[20] = test system: OVCAR-5
[21] = test system: M19-MEL
[22] = test system: SK-MEL-5
[23] = test system: SK-MEL-28
[24] = test system: CAKI-1
[25] = test system: 786-0
[26] = test system: IGROV-1
[27] = test system: SW-620
[28] = test system: SF-268
[29] = test system: LXFL 529
[30] = test system: OVCAR-8
[31] = test system: HOP-18
[32] = test system: HL-60
[33] = test system: DMS-114
[34] = test system: A498
[35] = test system: SF-295
[36] = test system: M14
[37] = test system: DMS-273
[38] = test system: SK-MEL-2
[39] = test system: HOP-92
[40] = test system: HCT-15
[41] = test system: SF-539
[42] = test system: DLD-1
[43] = test system: CCRF-CEM
[44] = test system: NCI-H23
[45] = test system: ACHN
[46] = test system: TK-10
[47] = test system: EKVX
[48] = test system: SNB-19
[49] = test system: HT-29
[50] = test system: NCI-H522
[51] = test system: NCI-H226
[52] = test system: Malme-3M
[53] = test system: HCC 2998
[54] = test system: UACC-257
[55] = test system: SK-OV-3
[56] = test system: RXF 393
[57] = test system: K562
[58] = test system: MDA-MB-435
[59] = test system: BT-549
[60] = test system: T47D
[61] = test system: Hs-578T
[62] = test system: MDA-MB-231
[63] = test system: MCF7
[64] = test system: PC-3
[65] = test system: NCI/ADR-RES
[66] = test system: DU-145
[67] = test system: MDA-N

Compound: NNC(=O)/C(=C/c1ccc(Cl)cc1Cl)NC(=O)c1ccccc1
- GI50 [1]: > 100 µM (inactive)
- GI50 [2]: > 100 µM (inactive)
- GI50 [3]: 60.5 µM (inactive)
- GI50 [4]: 41 µM (inactive)
- GI50 [5]: > 100 µM (inactive)
- GI50 [6]: > 100 µM (inactive)
- GI50 [7]: > 100 µM (inactive)
- GI50 [8]: > 100 µM (inactive)
- GI50 [9]: > 100 µM (inactive)
- GI50 [10]: > 100 µM (inactive)
- GI50 [11]: > 100 µM (inactive)
- GI50 [12]: > 100 µM (inactive)
- GI50 [13]: > 100 µM (inactive)
- GI50 [14]: > 100 µM (inactive)
- GI50 [15]: > 100 µM (inactive)
- GI50 [16]: 86.7 µM (inactive)
- GI50 [17]: > 100 µM (inactive)
- GI50 [18]: > 100 µM (inactive)
- GI50 [19]: > 100 µM (inactive)
- GI50 [20]: > 100 µM (inactive)
- GI50 [21]: > 100 µM (inactive)
- GI50 [22]: > 100 µM (inactive)
- GI50 [23]: > 100 µM (inactive)
- GI50 [24]: > 100 µM (inactive)
- GI50 [25]: > 100 µM (inactive)
- GI50 [26]: > 100 µM (inactive)
- GI50 [27]: > 100 µM (inactive)
- GI50 [28]: > 100 µM (inactive)
- GI50 [29]: > 100 µM (inactive)
- GI50 [30]: > 100 µM (inactive)
- GI50 [31]: > 100 µM (inactive)
- GI50 [32]: > 100 µM (inactive)
- GI50 [33]: > 100 µM (inactive)
- GI50 [34]: > 100 µM (inactive)
- GI50 [35]: > 100 µM (inactive)
- GI50 [36]: > 100 µM (inactive)
- GI50 [37]: > 100 µM (inactive)
- GI50 [38]: > 100 µM (inactive)
- GI50 [39]: > 100 µM (inactive)
- GI50 [40]: > 100 µM
- GI50 [41]: > 100 µM (inactive)
- GI50 [42]: > 100 µM (inactive)
- GI50 [43]: 79.8 µM (inactive)
- GI50 [44]: > 100 µM (inactive)
- GI50 [45]: > 100 µM (inactive)
- GI50 [46]: > 100 µM (inactive)
- GI50 [47]: < 0.01 µM (active)
- GI50 [48]: > 100 µM (inactive)
- GI50 [49]: > 100 µM (inactive)
- GI50 [50]: > 100 µM (inactive)
- GI50 [51]: > 100 µM (inactive)
- GI50 [52]: > 100 µM (inactive)
- GI50 [53]: > 100 µM (inactive)
- GI50 [54]: > 100 µM (inactive)
- GI50 [55]: > 100 µM (inactive)
- GI50 [56]: > 100 µM (inactive)
- GI50 [57]: 71.4 µM (inactive)

Compound: CC(=O)OC1=CC(n2cc(F)c(=O)[nH]c2=O)OC(C)C1=O (centres undefined)
- GI50 [58]: 11.4 µM (inactive)
- GI50 [1]: 25.3 µM (inactive)
- GI50 [2]: > 85.7 µM (inactive)
- GI50 [59]: 22.2 µM (inactive)
- GI50 [60]: 16.7 µM (inactive)
- GI50 [3]: 39.8 µM (inactive)
- GI50 [4]: 24.9 µM (inactive)
- GI50 [61]: > 88.3 µM (inactive)
- GI50 [5]: > 100 µM (inactive)
- GI50 [6]: 4.59 µM (inactive)
- GI50 [7]: 14.6 µM (inactive)
- GI50 [8]: 10.8 µM (inactive)
- GI50 [62]: > 88.7 µM (inactive)
- GI50 [9]: > 100 µM (inactive)
- GI50 [10]: 51.1 µM (inactive)
- GI50 [11]: 67.8 µM (inactive)
- GI50 [12]: 7.29 µM (inactive)
- GI50 [13]: > 82.2 µM (inactive)
- GI50 [14]: 26.1 µM (inactive)
- GI50 [15]: 22.8 µM (inactive)
- GI50 [16]: 26.5 µM (inactive)
- GI50 [17]: 15.3 µM (inactive)
- GI50 [18]: 13.5 µM (inactive)
- GI50 [63]: 4.28 µM (inactive)
- GI50 [19]: 23.7 µM (inactive)
- GI50 [20]: 49.8 µM (inactive)
- GI50 [21]: 90.8 µM (inactive)
- GI50 [22]: 13.2 µM (inactive)
- GI50 [23]: 17.7 µM (inactive)
- GI50 [24]: > 52.2 µM (inactive)
- GI50 [25]: 26.4 µM (inactive)
- GI50 [26]: 30.5 µM (inactive)
- GI50 [64]: 53 µM (inactive)
- GI50 [27]: 59 µM (inactive)
- GI50 [28]: 81.5 µM (inactive)
- GI50 [29]: > 100 µM (inactive)
- GI50 [30]: 40.7 µM (inactive)
- GI50 [31]: > 100 µM (inactive)
- GI50 [32]: 21.4 µM (inactive)
- GI50 [33]: 99.3 µM (inactive)
- GI50 [34]: 10.4 µM (inactive)
- GI50 [35]: 48.9 µM (inactive)
- GI50 [65]: 40.2 µM (inactive)
- GI50 [36]: 61.2 µM (inactive)
- GI50 [37]: 41.5 µM (inactive)
- GI50 [38]: > 100 µM (inactive)
- GI50 [39]: > 33.2 µM (inactive)
- GI50 [40]: 8.95 µM
- GI50 [41]: 3.01 µM (inactive)
- GI50 [42]: 97.3 µM (inactive)
- GI50 [43]: 75 µM (inactive)
- GI50 [44]: 19.1 µM (inactive)
- GI50 [66]: 21.6 µM (inactive)
- GI50 [45]: 18.4 µM (inactive)
- GI50 [46]: > 77.4 µM (inactive)
- GI50 [47]: > 88.5 µM (inactive)
- GI50 [48]: 61.9 µM (inactive)
- GI50 [49]: 10.7 µM (inactive)
- GI50 [50]: > 95.5 µM (inactive)
- GI50 [51]: > 97.3 µM (inactive)
- GI50 [52]: 19.6 µM (inactive)
- GI50 [67]: 15.2 µM (inactive)
- GI50 [53]: 5.26 µM (inactive)
- GI50 [54]: 57.1 µM (inactive)
- GI50 [55]: 99.1 µM (inactive)
- GI50 [56]: 55.3 µM (inactive)
- GI50 [57]: 57 µM (inactive)

— ChEMBL document CHEMBL1201862, “PubChem BioAssay data set” (2004)
